Laboratory results reported in PMC6627486, “Ipomoeassin F Binds Sec61α to Inhibit Protein Translocation” (Journal of the American Chemical Society, 2019).
pIC50: −log10 of the molar value.

Legend:
Type in all cases: cell-based, human
[1] = AlamarBlue cytotoxicity assay, MCF-10A; conditions: human, 72 h
Procedure: (§1) AlamarBlue Cytotoxicity Assay
(§2) MDA-MB-231, MCF-10A and HCT116. Viable cells were counted with a hemocytometer immediately before each experiment . Experiments were done in triplicate. First, 100 μL of MDA-MB-231 cells or MCF-10A cells at the density of 50,000 cells/mL was seeded in a 96-well plate (5,000 cells/well) and then incubated at 37 °C and 5% CO2 for 24 h. The compounds were dissolved in DMSO (dimethyl sulfoxide) to make drug stocks (10 mM). The stock solutions were diluted with the complete DMEM high glucose culture medium to make a series of gradient fresh working solutions right before each test. Subsequently, the cells were treated with 100 μL of the freshly made gradient working solution in a total volume of 200 μL/well for 72 h. After that, the media were discarded and 200 μL of the fresh complete medium containing 10% of AlamarBlue (resazurin) stock solution was added to each well. The plate was then incubated at 37 °C and 5% CO2 for another 3 h. Emission of each well at 620 nm was detected by a microplate reader (BioTek Synergy H1) at excitation 580 nm. […]
(§3) Microplate Reader. The percentage of viability compared to the negative control (DMSO-treated cells) […]
(§4) was determined. […]

MCF7 = assay: MTT cytotoxicity assay, MCF7; conditions: Homo sapiens; MCF7, 72 h, MTT; read-out: Cytotoxicity (IC50)
Procedure: Two human breast cancer cell lines (MDA-MB-231 and MCF7) and one human breast non-tumorigenic epithelial cell line (MCF-10A) were maintained in a DMEM high glucose culture medium supplemented with 10% fetal bovine serum (FBS) and 2 mM L-glutamine. The cells were grown in a humidified atmosphere of 5% CO2 and 95% air at 37 °C . The culture medi um w as changed every 2–4 days depending on cell density. Cell cultures were passaged once a week using 0.125% trypsin-EDTA to detach the cells from culture flasks/dishes.
The human colorectal cancer cell line HCT116 was maintained in McCoy’s 5A (modified) medium supplemented with 10% fetal bovine serum (FBS). The human embryonic kidney (HEK293T and HEK293 FRT TRex) cell line was maintained in DMEM high glucose culture medium supplemented with 10% fetal bovine serum (FBS).
HepG2 cells were cultured in DMEM supplemented with 10% fetal bovine serum and 2 mM L-glutamine at 37°C under 5% CO2.
Viable cells were counted with a hemocytometer immediately before each experiment. Experiments were done in triplicate. First, 100 μL of MCF7 cells at the density of 50,000 cells/mL were seeded in a 96-well plate (5,000 cells/well), which was incubated at 37 °C and 5% CO2 atmosphere for 24 h. The compounds were dissolved in DMSO (dimethyl sulfoxide) to make drug stocks (10 mM). The stock solutions were diluted with the complete DMEM high glucose culture medium to make a series of gradient fresh working solutions right before each test. Subsequently, the cells were treated with 100 μL of the freshly made gradient working solution in a total volume of 200 μL/well for 72 h. After that, the media were discarded and 200 μL of the fresh complete medium containing 10% of MTT stock solution (5 mg/mL) was added to each well. The plate was then incubated at 37 °C and 5% CO2 for 3 h. Next, 180 μL of the medium was discarded from each well , and 180 μL of DMSO was added to each well to dissol ve formazan crystals. Absorbance of formazan was detected by a microplate reader (BioTek Synergy H1) at 570 nm with 650 nm as the reference wavelength. The percentage of viability compared to the negative control (DMSO-treated cells) was determined . GraphPad Prism 6 software was used to make a plot of %

MDA-MB-231 = assay: AlamarBlue cytotoxicity assay, MDA-MB-231; conditions: Homo sapiens; MDA-MB-231, 72 h, AlamarBlue; read-out: Cytotoxicity (IC50)
Procedure: as §1, §2, §3, §4

HepG2 cells = assay: Pulse-chase analysis of protein secretion in HepG2 cells; conditions: HepG2; 100 nM Ipom-F or 42 nM mycolactone 13.5 h; 100 nM bortezomib 2 h
Procedure: Pulse‐Chase Analysis of Protein Secretion in HepG2 Cells
The secretion assay was performed using a pulse–chase approach as described previously.20 HepG2 cells were treated with DMSO, 100 nM compound 8, 100 nM Ipom-F or […] mycolactone for 13.5 h before initiating the experiment, whereas pre-treatment with bortezomib 100 nM (Stratech) or 2.5 μg/ml brefeldin A were performed for 2 h and 1 h, respectively. Cells were starved in Met‐ and Cys‐free DMEM (Invitrogen) for 20 min at 37°C. Labeling was initiated by addition of fresh starvation medium containing […] [35S]Met and [35S]Cys protein labeling mix (Perkin Elmer; specific activity >1,000 Ci/mmol) for 15 min. After washing with PBS, cells were incubated in serum‐free DMEM supplemented with excess unlabeled L‐Met and L‐Cys (2 mM final concentration) for 2 h. The compounds were included throughout the starvation, pulse and chase. Secreted proteins in the media were recovered by precipitation with 13% trichloroacetic acid, washed in acetone and dissolved in 2x sample buffer. Cells were solubilized with Triton X‐100 lysis buffer (20 mM Tris, pH 7.5, 150 mM NaCl, 1% TX-100, 1 mM EDTA, 1 mM EGTA) supplemented with protease inhibitor cocktail and phenylmethylsulfonyl fluoride. Equal amounts

Compound	pIC50 [1]	pIC50 (MCF7)	pIC50 (MDA-MB-231)	secretory proteins in cell media (HepG2 cells)
C/C=C(\C)C(=O)O[C@@H]1[C@@H](O)[C@@H]2O[C@H]3[C@H](O[C@@H](CCCCC)CCCCCCC(=O)CCC(=O)OC[C@@H](O2)[C@H]1OC(=O)/C=C/c1ccc(OCc2cn(CCOCCOCCOCCNc4ccc([N+](=O)[O-])c5nonc45)nn2)cc1)O[C@H](C)[C@H](OC(C)=O)[C@@H]3O [compound 11]	8.70	7.68	8.55	–
CC(C)C[C@H](NC(=O)[C@H](Cc1ccccc1)NC(=O)c1cnccn1)B(O)O [bortezomib, reference compound]	–	–	–	had no effect
C#CCOc1ccc(/C=C/C(=O)O[C@@H]2[C@@H](O)[C@@H]3O[C@H]4[C@H](O[C@@H](CCCCC)CCCCCCC(=O)CCC(=O)OC[C@@H](O3)[C@H]2OC(=O)/C(C)=C/C)O[C@H](C)[C@H](OC(C)=O)[C@@H]4O)cc1 [compound 3]	8.02	7.65	8.20	–
C/C=C(\C)C(=O)O[C@@H]1[C@@H](O)[C@@H]2O[C@H]3[C@H](O[C@@H](CCCCC)CCCCCCC(=O)CCC(=O)OC[C@@H](O2)[C@H]1OC(=O)/C=C/c1ccc(OCc2cn(-c4cc5ccc(O)cc5oc4=O)nn2)cc1)O[C@H](C)[C@H](OC(C)=O)[C@@H]3O [compound 10]	7.95	6.76	8.05	–
